Data published in ChEMBL document CHEMBL6134931, “Lysine-Targeted Covalent Strategy Leading to the Discovery of Novel Potent PROTAC-Based PI3Kδ Degraders” (J Med Chem, 2025).
The source made the active and inactive calls. No cut-off for these calls is given here.

Columns and labels:
SU-DHL-6 [1] = experiment: Induction of apoptosis in human SU-DHL-6 cells assessed as viable cells at 0.01 uM incubated for 24 hrs by Annexin V-FITC/PI staining based flow cytometric analysis (reference value: 92.54 %); format: functional; settings: read-out: Activity
SU-DHL-6 [2] = experiment: Cell cycle arrest in human SU-DHL-6 cells assessed as increase in G1 phase cells incubated for 24 hrs by PI staining based flow cytometric analysis; format: functional; settings: dose 0.01-1 µM
SU-DHL-6 [3] = experiment: Induction of autophagy in human SU-DHL-6 cells assessed as increase in LC3-II to LC3-I ratio at 1 to 100 nM incubated for 24 hrs by Western blot analysis; format: functional, cell-based; settings: dose 1-100 nM
SU-DHL-6 [4] = experiment: Antiproliferative activity against human SU-DHL-6 cells assessed as cell growth inhibition incubated for 72 hrs by MTT assay; format: functional
SU-DHL-6 [5] = experiment: Induction of apoptosis in human SU-DHL-6 cells assessed as late apoptotic cells at 0.1 uM incubated for 24 hrs by Annexin V-FITC/PI staining based flow cytometric analysis (reference value: 4.75 %); format: functional
SU-DHL-6 [6] = experiment: Cell cycle arrest in human SU-DHL-6 cells assessed as increase in G1 phase cells at 0.1 uM incubated for 24 hrs by PI staining based flow cytometric analysis; format: functional
SU-DHL-6 [7] = experiment: Inhibition of AKT phosphorylation in human SU-DHL-6 cells at 1 to 10000 nM incubated for 24 hrs by Western blot analysis; format: cell-based; settings: dose 1-10000 nM
SU-DHL-6 [8] = experiment: Induction of apoptosis in human SU-DHL-6 cells assessed as necrotic cells at 0.01 uM incubated for 24 hrs by Annexin V-FITC/PI staining based flow cytometric analysis (reference value: 0.39 %); format: functional
SU-DHL-6 [9] = experiment: Induction of apoptosis in human SU-DHL-6 cells assessed as viable cells at 0.1 uM incubated for 24 hrs by Annexin V-FITC/PI staining based flow cytometric analysis (reference value: 92.54 %); format: functional; settings: read-out: Activity
SU-DHL-6 [10] = experiment: Induction of apoptosis in human SU-DHL-6 cells assessed as early apoptotic cells at 0.01 uM incubated for 24 hrs by Annexin V-FITC/PI staining based flow cytometric analysis (reference value: 2.32 %); format: functional
SU-DHL-6 [11] = experiment: Induction of apoptosis in human SU-DHL-6 cells assessed as necrotic cells at 1 uM incubated for 24 hrs by Annexin V-FITC/PI staining based flow cytometric analysis (reference value: 0.39 %); format: functional
SU-DHL-6 [12] = experiment: Induction of apoptosis in human SU-DHL-6 cells assessed as early apoptotic cells at 0.1 uM incubated for 24 hrs by Annexin V-FITC/PI staining based flow cytometric analysis (reference value: 2.32 %); format: functional
SU-DHL-6 [13] = experiment: Induction of apoptosis in human SU-DHL-6 cells assessed as viable cells at 1 uM incubated for 24 hrs by Annexin V-FITC/PI staining based flow cytometric analysis (reference value: 92.54 %); format: functional; settings: read-out: Activity
SU-DHL-6 [14] = experiment: Inhibition of AKT phosphorylation in human SU-DHL-6 cells at 0.1 to 1 uM incubated for 24 hrs by Western blot analysis; format: cell-based; settings: dose 0.1-1 µM
Pfeiffer = experiment: Antiproliferative activity against human Pfeiffer cells assessed as cell growth inhibition incubated for 72 hrs by MTT assay; format: functional
SU-DHL-6 [15] = experiment: Induction of apoptosis in human SU-DHL-6 cells assessed as late apoptotic cells at 1 uM incubated for 24 hrs by Annexin V-FITC/PI staining based flow cytometric analysis (reference value: 4.75 %); format: functional
SU-DHL-6 [16] = experiment: Induction of apoptosis in human SU-DHL-6 cells assessed as necrotic cells at 0.1 uM incubated for 24 hrs by Annexin V-FITC/PI staining based flow cytometric analysis (reference value: 0.39 %); format: functional
SU-DHL-6 [17] = experiment: Induction of apoptosis in human SU-DHL-6 cells assessed as early apoptotic cells at 1 uM incubated for 24 hrs by Annexin V-FITC/PI staining based flow cytometric analysis (reference value: 2.32 %); format: functional
SU-DHL-6 [18] = experiment: Induction of apoptosis in human SU-DHL-6 cells assessed as late apoptotic cells at 0.01 uM incubated for 24 hrs by Annexin V-FITC/PI staining based flow cytometric analysis (reference value: 4.75 %); format: functional
MDA-MB-231 = experiment: Antiproliferative activity against human MDA-MB-231 cells; format: functional, cell-based
[19] = target: Protein cereblon/Phosphatidylinositol 4,5-bisphosphate 3-kinase catalytic subunit alpha isoform (Homo sapiens, UniProt P42336+Q96SW2); experiment: PROTAC activity at CRBN/p110alpha in human MDA-MB-231 cells assessed as induction of p110alpha degradation; format: cell-based
[20] = target: Protein cereblon/Phosphatidylinositol 4,5-bisphosphate 3-kinase catalytic subunit gamma isoform (Homo sapiens, UniProt P48736+Q96SW2); experiment: PROTAC activity at CRBN/p110gamma (unknown origin) in Acute myeloid leukemic cell; format: cell-based
SU-DHL-6 [21] = experiment: Induction of apoptosis in human SU-DHL-6 cells assessed as late apoptotic cells at 10 uM incubated for 24 hrs by Annexin V-FITC/PI staining based flow cytometric analysis (reference value: 4.75 %); format: functional
SU-DHL-6 [22] = experiment: Induction of apoptosis in human SU-DHL-6 cells assessed as early apoptotic cells at 10 uM incubated for 24 hrs by Annexin V-FITC/PI staining based flow cytometric analysis (reference value: 2.32 %); format: functional
SU-DHL-6 [23] = experiment: Antitumor activity against human SU-DHL-6 cells xenografted in male nude mouse model assessed as tumor growth inhibition at 2 mg/kg, ip administered for 21 days relative to control; format: functional; settings: SU-DHL-6, 504 h, time 21 day, read-out: TGI
[24] = target: T1, Phosphatidylinositol 4,5-bisphosphate 3-kinase catalytic subunit delta isoform (Homo sapiens) (UniProt O00329); settings: dose 100.0 nM, time 90.0 min
T1 sequence (whole entry): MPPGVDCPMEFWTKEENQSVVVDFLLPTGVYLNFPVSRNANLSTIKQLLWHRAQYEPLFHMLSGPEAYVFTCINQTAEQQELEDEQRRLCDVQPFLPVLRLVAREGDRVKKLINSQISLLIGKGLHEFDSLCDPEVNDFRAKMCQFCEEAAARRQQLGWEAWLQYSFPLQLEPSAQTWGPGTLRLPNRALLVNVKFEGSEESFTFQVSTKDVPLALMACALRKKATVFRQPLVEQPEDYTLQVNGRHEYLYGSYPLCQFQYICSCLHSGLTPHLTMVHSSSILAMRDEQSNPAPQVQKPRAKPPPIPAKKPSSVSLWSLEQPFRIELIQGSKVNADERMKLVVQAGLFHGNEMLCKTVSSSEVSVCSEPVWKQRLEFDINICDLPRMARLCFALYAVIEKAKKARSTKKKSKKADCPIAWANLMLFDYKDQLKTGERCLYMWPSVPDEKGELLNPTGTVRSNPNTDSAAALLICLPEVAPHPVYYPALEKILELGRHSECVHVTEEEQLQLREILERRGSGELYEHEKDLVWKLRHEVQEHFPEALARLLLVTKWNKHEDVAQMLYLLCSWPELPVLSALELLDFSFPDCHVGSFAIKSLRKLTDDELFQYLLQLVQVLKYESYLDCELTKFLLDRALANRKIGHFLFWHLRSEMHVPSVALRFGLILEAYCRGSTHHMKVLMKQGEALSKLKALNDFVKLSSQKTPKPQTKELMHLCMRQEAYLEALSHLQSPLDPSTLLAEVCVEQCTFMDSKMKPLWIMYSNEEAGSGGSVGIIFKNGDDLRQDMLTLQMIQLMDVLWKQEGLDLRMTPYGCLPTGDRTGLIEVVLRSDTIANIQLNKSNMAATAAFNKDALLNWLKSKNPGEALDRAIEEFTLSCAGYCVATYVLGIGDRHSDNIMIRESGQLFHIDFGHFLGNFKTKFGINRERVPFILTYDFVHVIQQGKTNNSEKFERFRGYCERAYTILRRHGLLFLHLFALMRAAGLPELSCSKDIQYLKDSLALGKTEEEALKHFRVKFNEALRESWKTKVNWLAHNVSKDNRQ

SU-DHL-6 [25] = experiment: Induction of apoptosis in human SU-DHL-6 cells assessed as necrotic cells at 10 uM incubated for 24 hrs by Annexin V-FITC/PI staining based flow cytometric analysis (reference value: 0.39 %); format: functional
SU-DHL-6 [26] = experiment: Induction of apoptosis in human SU-DHL-6 cells assessed as viable cells at 10 uM incubated for 24 hrs by Annexin V-FITC/PI staining based flow cytometric analysis (reference value: 92.54 %); format: functional; settings: read-out: Activity
[27] = target: T1, Phosphatidylinositol 4,5-bisphosphate 3-kinase catalytic subunit delta isoform (Homo sapiens); experiment: Induction of p110delta degradation in human SU-DHL-6 cells at 1000 nM incubated for 24 hrs by Western blot analysis; format: cell-based
[28] = target: von Hippel-Lindau disease tumor suppressor/Phosphatidylinositol 4,5-bisphosphate 3-kinase catalytic subunit delta isoform (Homo sapiens) (UniProt O00329+P40337); experiment: PROTAC activity at VHL/p110delta in human SU-DHL-6 cells assessed as induction of p110delta degradation at 100 nM measured after 12 hrs in presence of (2S,4R)-1-((S)-2-acetamido-3,3-dimethylbutanoyl)-4-hydroxy-N-(4-(4-methylthiazol-5-yl)benzyl)pyrrolidine-2-carboxamide by Western blot analysis; format: cell-based
von Hippel-Lindau disease tumor suppressor/Phosphatidylinositol 4,5-bisphosphate 3-kinase catalytic subunit delta isoform (Homo sapiens), sequence (P40337 whole entry, looked up, one chain of several, canonical isoform): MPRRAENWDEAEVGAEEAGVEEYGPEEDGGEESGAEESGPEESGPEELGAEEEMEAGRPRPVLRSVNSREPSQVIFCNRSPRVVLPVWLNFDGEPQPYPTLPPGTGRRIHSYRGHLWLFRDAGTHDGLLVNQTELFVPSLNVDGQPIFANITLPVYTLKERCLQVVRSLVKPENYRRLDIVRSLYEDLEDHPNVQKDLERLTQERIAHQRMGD

Protein cereblon/Phosphatidylinositol 4,5-bisphosphate 3-kinase catalytic subunit gamma isoform, sequence (P48736 whole entry, canonical isoform): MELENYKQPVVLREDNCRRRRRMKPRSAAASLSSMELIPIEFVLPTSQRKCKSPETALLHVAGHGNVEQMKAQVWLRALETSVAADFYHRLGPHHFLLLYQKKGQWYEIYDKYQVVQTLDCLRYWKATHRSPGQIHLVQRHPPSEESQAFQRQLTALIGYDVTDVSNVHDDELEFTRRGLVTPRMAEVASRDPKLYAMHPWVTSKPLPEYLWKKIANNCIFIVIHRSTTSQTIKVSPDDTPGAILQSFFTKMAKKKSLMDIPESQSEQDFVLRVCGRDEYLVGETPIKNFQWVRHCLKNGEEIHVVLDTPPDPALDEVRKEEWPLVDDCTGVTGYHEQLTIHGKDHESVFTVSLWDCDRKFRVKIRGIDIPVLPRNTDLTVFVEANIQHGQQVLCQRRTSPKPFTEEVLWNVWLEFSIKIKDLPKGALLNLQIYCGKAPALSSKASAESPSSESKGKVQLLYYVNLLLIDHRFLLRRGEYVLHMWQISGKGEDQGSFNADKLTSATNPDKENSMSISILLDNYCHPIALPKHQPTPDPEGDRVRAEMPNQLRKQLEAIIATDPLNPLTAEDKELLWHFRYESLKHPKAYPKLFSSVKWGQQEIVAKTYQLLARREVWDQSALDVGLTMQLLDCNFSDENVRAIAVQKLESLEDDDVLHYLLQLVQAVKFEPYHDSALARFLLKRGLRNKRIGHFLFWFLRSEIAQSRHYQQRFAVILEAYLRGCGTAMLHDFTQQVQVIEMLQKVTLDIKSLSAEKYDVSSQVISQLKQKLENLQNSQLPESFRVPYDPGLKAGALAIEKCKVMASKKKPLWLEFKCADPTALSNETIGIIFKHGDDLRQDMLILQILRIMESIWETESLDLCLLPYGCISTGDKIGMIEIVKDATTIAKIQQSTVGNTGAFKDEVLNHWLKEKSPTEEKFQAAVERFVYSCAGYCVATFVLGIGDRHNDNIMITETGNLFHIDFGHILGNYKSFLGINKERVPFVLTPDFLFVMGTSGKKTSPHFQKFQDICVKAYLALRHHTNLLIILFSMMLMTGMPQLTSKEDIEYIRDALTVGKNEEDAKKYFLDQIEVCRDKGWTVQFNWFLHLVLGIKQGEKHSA
Protein cereblon/Phosphatidylinositol 4,5-bisphosphate 3-kinase catalytic subunit gamma isoform, sequence (Q96SW2 whole entry, canonical isoform): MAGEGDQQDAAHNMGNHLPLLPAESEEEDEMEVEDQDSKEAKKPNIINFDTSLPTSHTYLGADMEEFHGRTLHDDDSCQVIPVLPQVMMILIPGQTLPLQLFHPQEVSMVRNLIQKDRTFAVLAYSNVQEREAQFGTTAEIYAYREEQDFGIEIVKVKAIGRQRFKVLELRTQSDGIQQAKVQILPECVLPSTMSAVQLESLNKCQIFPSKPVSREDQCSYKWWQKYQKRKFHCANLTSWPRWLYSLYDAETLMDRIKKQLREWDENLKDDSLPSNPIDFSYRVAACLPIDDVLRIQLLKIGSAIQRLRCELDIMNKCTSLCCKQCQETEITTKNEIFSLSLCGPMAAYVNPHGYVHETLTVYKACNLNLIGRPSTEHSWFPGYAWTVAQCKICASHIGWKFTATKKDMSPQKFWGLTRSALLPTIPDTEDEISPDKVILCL
Protein cereblon/Phosphatidylinositol 4,5-bisphosphate 3-kinase catalytic subunit alpha isoform, sequence (P42336 whole entry, canonical isoform): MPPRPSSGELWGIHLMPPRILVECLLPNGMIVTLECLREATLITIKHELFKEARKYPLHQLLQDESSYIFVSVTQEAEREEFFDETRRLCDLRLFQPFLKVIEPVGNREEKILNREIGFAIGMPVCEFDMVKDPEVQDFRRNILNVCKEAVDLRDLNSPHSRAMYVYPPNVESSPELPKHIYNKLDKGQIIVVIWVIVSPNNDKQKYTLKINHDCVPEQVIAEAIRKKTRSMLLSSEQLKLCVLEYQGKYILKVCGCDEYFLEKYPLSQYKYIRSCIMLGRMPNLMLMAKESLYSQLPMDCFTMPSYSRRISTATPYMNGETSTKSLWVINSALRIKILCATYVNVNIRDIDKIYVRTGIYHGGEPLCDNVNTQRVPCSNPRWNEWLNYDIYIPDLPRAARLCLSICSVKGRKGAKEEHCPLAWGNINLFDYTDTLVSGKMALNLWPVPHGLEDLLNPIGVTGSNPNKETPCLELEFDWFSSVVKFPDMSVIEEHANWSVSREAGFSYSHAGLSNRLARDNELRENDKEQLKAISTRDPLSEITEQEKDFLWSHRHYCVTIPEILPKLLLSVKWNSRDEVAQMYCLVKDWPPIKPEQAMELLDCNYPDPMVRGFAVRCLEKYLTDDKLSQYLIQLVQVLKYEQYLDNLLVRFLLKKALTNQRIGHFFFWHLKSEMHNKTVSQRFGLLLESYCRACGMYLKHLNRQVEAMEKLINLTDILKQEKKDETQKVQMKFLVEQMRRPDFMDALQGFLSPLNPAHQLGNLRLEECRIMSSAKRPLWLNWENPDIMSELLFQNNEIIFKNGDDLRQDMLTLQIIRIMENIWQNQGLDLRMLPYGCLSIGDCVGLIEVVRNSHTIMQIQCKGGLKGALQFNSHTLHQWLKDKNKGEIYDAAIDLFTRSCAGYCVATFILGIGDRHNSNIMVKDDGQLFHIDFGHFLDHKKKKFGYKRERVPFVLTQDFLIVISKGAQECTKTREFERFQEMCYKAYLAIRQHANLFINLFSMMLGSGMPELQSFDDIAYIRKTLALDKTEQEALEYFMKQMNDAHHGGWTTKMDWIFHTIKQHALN
Protein cereblon/Phosphatidylinositol 4,5-bisphosphate 3-kinase catalytic subunit alpha isoform, sequence (Q96SW2 whole entry, canonical isoform): as the sequence (Q96SW2 whole entry, canonical isoform) above

SMILES: COc1ncc(-c2ccc3ncnc(N[C@H]4CCN(C(=O)C5CCN(CCCCCCCCCC(=O)N[C@H](C(=O)N6C[C@H](O)C[C@H]6C(=O)NCc6ccc(-c7scnc7C)cc6)C(C)(C)C)CC5)C4)c3n2)cc1C(=O)Oc1ccccc1
- viability at 0.01 µM (SU-DHL-6 [1]): 92.4%
- Activity (SU-DHL-6 [2]): Dose-dependent-effect
- Activity (SU-DHL-6 [3]): Active
- GI50 (SU-DHL-6 [4]): 200 nM
- Activity (SU-DHL-6 [5]): 7.29%
- Activity (SU-DHL-6 [6]): Active; More Potent Than 10 Um Idelalisib
- inhibition (SU-DHL-6 [7]): Active
- Activity (SU-DHL-6 [8]): 0.11%
- viability at 0.1 µM (SU-DHL-6 [9]): 90.1%
- Activity (SU-DHL-6 [10]): 2.73%
- Activity (SU-DHL-6 [11]): 5.5%
- Activity (SU-DHL-6 [12]): 2.29%
- viability at 1 µM (SU-DHL-6 [13]): 20.4%
- inhibition (SU-DHL-6 [14]): Active
- GI50 (Pfeiffer): 370 nM
- Activity (SU-DHL-6 [15]): 72.97%
- Activity (SU-DHL-6 [16]): 0.31%
- Activity (SU-DHL-6 [17]): 1.16%
- Activity (SU-DHL-6 [18]): 4.79%

SMILES: COc1c(OCCOCCOCCCCCc2cn(CCCCCNc3cccc4c3C(=O)N(C3CCC(=O)NC3=O)C4=O)nn2)ccc2c1N=C(NC(=O)c1cnc(N)nc1)N1CCN=C21 (stereo unspecified)
- IC50 (MDA-MB-231): 86.8 nM
- DC50 [19]: 5 nM

SMILES: Cc1cc(-c2sc(NC(=O)CCCC(=O)NCCCCCCCC(=O)Nc3cccc4c3C(=O)N(C3CCC(=O)NC3=O)C4=O)nc2C)cc2c1C(=O)N([C@H](C)C1CC1)C2 (stereo partly specified)
- DC50 [20]: > 100 nM

SMILES: CC[C@H](Nc1ncnc2[nH]cnc12)c1nc2cccc(F)c2c(=O)n1-c1ccccc1 [IDELALISIB]
- GI50 (SU-DHL-6 [4]): 250 nM
- Activity (SU-DHL-6 [21]): 11.55%
- Activity (SU-DHL-6 [22]): 8.2%
- Activity (SU-DHL-6 [11]): 0.18%
- viability at 1 µM (SU-DHL-6 [13]): 91.7%
- inhibition in vivo at 2 mg/kg (SU-DHL-6 [23]): 36.3%
- inhibition [24]: 81%
- Activity (SU-DHL-6 [25]): 0.13%
- GI50 (Pfeiffer): 8550 nM
- Activity (SU-DHL-6 [15]): 4.89%
- viability at 10 µM (SU-DHL-6 [26]): 80.1%
- Activity (SU-DHL-6 [17]): 3.25%

SMILES: COc1ncc(-c2ccc3ncnc(N[C@H]4CCN(C(=O)C5CCOCC5)C4)c3n2)cc1C(=O)Oc1ccccc1
- Activity [27]: < 20%
- Activity [28]: Not active; Formation Of Ternary Complex Plays A Pivotal Factor In Degradation
